Assay results taken from US20230097866A1, “BACTERIAL TOPOISOMERASE INHIBITORS DERIVED FROM ISOMANNIDE” (Ohio State Innovation Foundation, priority 2020, published 2023).
≈ marks a conversion by molar mass, not a printed value. Read-outs that look alike come from different tables or passages of the source.

Legend:
S. aureus ATCC 29213 = format: cell-based, Staphylococcus aureus; conditions: S. aureus ATCC 29213
Caco-2 cells = format: in vitro ADME; conditions: human, Caco-2, 10 μM, pH 7.4
Experimental: Caco-2 cells were plated on Transwell inserts and permeability assays were performed at day 21-25 post-plating. A single concentration of test compound (10 μM final) was prepared in HSS-HEPES buffer (pH 7.4) with a final DMSO concentration of 0.1%. To determine apical to basolateral (A to B) transport, test compounds were applied to the apical compartment in the presence and absence of the P-gp inhibitor verapamil (100 μM final). Atenolol and caffeine were assayed as control compounds. Samples were collected at various time points and analyzed using LC-MS/MS methods to determine the apparent permeability coefficient (Papp), efflux ratio, and recovery of the test compound.
Transport in the opposite direction (B to A) was also determined.

[1] = tested on: Streptococcus pneumoniae LSI-4234; test: MIC panel (Laboratory Specialists, Inc.), S. pneumoniae LSI-4234; format: cell-based; conditions: LSI4234, Cmpd. 6, penicillin-susceptible strain
[2] = target: Norepinephrine transporter (Homo sapiens, UniProt P23975); test: Off-target safety panel, norepinephrine transporter; format: binding; conditions: duplicate, read-out: % Inhibition at 100 μM conc., Norepinephrine transporter
Experimental: (§1) Potential off-target pharmacology for compound 6 was also evaluated by screening in duplicate against a panel (Bowes, J., et al., Reducing Safety-Related Drug Attrition: The Use of in vitro Pharmacological Profiling. Nat. Rev. Drug Disc. 2012, 11, 909-922) of 44 receptors, enzymes, etc. Of the 44 potential targets, only five were inhibited by >50% at a concentration of 100 μM (Table 7).

[3] = tested on: Klebsiella pneumoniae LSI-2999; test: MIC panel (Laboratory Specialists, Inc.), K. pneumoniae; format: cell-based; conditions: LSI2999, Cmpd. 6, CLSI broth microdilution
CYP3A4 = target: T1, CYP3A4 (Homo sapiens, UniProt P08684); test: CYP450 inhibition in human liver microsomes, CYP3A4; format: in vitro ADME; conditions: both sexes
T1 construct: incubated with human liver microsomes (mixed gender, pool of 50 donors, 0.1 mg/mL); from tissue; host or cells: human liver microsomes, pool of 50 donors
Experimental: CYP450 inhibition assays was conducted using individual enzyme substrates and inhibitors instead of a cocktail to avoid interferences. CYP450 isoforms tested included the following: CYP1A2, CYP2B6, CYP2C8, CYP2C9, CYP2C19, CYP2D6, and CYP3A4. […] Each test compound was incubated with human liver microsomes (mixed gender, pool of 50 donors, 0.1 mg/mL), CYP450-selective probe substrates, and co-factors (NADPH, MgCl2) in phosphate buffer (pH 7.4) for 10-30 min in a 96-well plate at 37° C. The reactions were stopped by transferring the reaction mixture to acetonitrile/methanol. Samples were mixed and centrifuged, and the supernatants analyzed by LC-MS/MS to quantify percent inhibition relative to vehicle control.

[4] = tested on: Enterococcus faecium DRL-4193; test: MIC panel (Laboratory Specialists, Inc.), E. faecium DRL-4193; format: cell-based; conditions: DRL4193, Cmpd. 6, vancomycin-susceptible strain
[5] = target: T2, Nav 1.5 Human Sodium Ion Channel (Homo sapiens, UniProt Q14524); test: Nav 1.5 QPatch CiPA assay; format: cell-based; conditions: mean, duplicate
T2 construct: expressed in transfected cells
Excerpt: (§2) Early drug discovery programs commonly assess hERG inhibition as the only indicator of potential cardiovascular safety concerns. Researchers have recently recommended a more rigorous evaluation of multiple cardiac ion channels to provide a more comprehensive cardiovascular risk assessment (Fermini, B., et al., A New Perspective in the Field of Cardiac Safety Testing through the Comprehensive In Vitro Proarrhythmia Assay Paradigm. J. Biomolec. Screening 2016, 21, 1-11). Given the promising initial results for 6, further evaluation was undertaken (in duplicate) in a Comprehensive in vitro Proarrhythmia Assay (CiPA) eight assay panel run on the QPatch HT (Sophion, Denmark) automated patch clamp system at three concentrations (3, 30, and 100 μM). All data were filtered for seal quality, seal drop, and current amplitude. A stock solution of the test compound at 30 mM concentration was prepared in DMSO.
(§3) The parameters measured were the maximum inward current evoked on stepping to −15 mV from the test pulse. The peak current amplitude was calculated before and after compound addition and the amount of block was assessed by dividing the Test compound current amplitude by the Control current amplitude. Control is the mean hNav1.5 current amplitude collected 15 seconds at the end of the control; Test Compound is the mean hNav1.5 current amplitude collected in the presence of test compound at each concentration. The positive control compound was tetracaine.

5-HT2B = 5-HT2B (Homo sapiens, UniProt P41595); test: Off-target safety panel, 5-HT2B; format: binding; conditions: duplicate, read-out: % Inhibition at 100 μM conc., 5-HT2B
Experimental: as §1

MRSADRL-3161 = test: MIC panel (Laboratory Specialists, Inc.), MRSA; format: cell-based; conditions: Staphylococcus aureus; Cmpd. 6; CLSI broth microdilution
[6] = target: T3, hERG Human Potassium Ion Channel (Homo sapiens, UniProt Q12809); test: hERG QPatch CiPA assay; format: cell-based; conditions: mean, duplicate
T3 construct: expressed in transfected cells
Excerpt: as §2
as §3, with “tail” for “inward”, “40 mV and ramping back to −80” for “−15”, “hERG” for “hNav1.5”, “control” for “control compound”, “E-4031.” for “tetracaine.”

[7] = liver microsomes, pH 7.4, probe midazolam, Exp. 1, read-out: CYP3A4 (midazolam hydroxylase) % of control (Exp. 1)
[8] = liver microsomes, pH 7.4, probe midazolam, Exp. 2, read-out: CYP3A4 (midazolam hydroxylase) % of control (Exp. 2)
[9] = liver microsomes, pH 7.4, probe midazolam, Exp. 3, read-out: CYP3A4 (midazolam hydroxylase) % of control (Exp. 3)

T1 sequence (P08684 whole entry): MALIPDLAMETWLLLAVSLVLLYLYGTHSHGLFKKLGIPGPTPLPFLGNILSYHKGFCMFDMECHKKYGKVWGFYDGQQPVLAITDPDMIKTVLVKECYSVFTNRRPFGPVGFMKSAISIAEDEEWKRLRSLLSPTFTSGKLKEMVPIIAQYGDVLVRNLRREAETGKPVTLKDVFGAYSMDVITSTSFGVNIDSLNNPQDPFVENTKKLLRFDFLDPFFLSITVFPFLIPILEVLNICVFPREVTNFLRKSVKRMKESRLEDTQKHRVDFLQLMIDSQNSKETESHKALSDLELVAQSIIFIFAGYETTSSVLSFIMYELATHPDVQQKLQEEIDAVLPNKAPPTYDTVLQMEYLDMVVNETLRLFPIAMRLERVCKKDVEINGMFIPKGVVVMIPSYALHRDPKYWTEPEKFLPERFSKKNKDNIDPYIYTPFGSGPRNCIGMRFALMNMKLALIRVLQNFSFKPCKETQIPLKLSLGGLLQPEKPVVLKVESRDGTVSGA
T3 sequence (Q12809 whole entry): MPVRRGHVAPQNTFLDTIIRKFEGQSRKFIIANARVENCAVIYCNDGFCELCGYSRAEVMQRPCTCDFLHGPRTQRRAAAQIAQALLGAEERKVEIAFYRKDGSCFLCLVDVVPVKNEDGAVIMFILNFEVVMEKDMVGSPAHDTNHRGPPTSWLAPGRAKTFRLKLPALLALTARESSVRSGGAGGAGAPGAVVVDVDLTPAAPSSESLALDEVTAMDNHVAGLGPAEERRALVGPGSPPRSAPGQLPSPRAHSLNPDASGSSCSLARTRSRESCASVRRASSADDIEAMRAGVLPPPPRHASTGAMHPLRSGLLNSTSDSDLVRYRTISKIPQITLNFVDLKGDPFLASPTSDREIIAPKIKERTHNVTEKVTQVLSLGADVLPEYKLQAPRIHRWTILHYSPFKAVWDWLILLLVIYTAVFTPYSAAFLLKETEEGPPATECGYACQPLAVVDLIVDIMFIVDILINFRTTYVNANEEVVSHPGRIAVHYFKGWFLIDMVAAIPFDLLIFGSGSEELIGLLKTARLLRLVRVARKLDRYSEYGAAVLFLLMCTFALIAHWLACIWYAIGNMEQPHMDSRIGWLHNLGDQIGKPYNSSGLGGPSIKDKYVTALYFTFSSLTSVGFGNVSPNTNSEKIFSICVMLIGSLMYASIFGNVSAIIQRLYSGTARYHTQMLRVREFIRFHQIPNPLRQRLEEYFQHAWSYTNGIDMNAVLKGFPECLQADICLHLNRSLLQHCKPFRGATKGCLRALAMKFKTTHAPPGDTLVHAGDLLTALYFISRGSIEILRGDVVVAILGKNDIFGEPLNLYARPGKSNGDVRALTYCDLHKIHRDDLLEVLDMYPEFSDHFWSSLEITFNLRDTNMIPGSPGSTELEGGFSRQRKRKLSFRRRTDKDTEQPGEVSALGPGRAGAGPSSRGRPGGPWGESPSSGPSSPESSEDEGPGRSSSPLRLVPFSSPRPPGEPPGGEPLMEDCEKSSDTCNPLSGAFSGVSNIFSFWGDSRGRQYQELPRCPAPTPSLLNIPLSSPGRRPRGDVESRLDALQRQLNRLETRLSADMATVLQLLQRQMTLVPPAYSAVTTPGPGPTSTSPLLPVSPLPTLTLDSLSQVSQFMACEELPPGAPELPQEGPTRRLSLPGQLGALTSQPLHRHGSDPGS
T2 sequence (Q14524 whole entry): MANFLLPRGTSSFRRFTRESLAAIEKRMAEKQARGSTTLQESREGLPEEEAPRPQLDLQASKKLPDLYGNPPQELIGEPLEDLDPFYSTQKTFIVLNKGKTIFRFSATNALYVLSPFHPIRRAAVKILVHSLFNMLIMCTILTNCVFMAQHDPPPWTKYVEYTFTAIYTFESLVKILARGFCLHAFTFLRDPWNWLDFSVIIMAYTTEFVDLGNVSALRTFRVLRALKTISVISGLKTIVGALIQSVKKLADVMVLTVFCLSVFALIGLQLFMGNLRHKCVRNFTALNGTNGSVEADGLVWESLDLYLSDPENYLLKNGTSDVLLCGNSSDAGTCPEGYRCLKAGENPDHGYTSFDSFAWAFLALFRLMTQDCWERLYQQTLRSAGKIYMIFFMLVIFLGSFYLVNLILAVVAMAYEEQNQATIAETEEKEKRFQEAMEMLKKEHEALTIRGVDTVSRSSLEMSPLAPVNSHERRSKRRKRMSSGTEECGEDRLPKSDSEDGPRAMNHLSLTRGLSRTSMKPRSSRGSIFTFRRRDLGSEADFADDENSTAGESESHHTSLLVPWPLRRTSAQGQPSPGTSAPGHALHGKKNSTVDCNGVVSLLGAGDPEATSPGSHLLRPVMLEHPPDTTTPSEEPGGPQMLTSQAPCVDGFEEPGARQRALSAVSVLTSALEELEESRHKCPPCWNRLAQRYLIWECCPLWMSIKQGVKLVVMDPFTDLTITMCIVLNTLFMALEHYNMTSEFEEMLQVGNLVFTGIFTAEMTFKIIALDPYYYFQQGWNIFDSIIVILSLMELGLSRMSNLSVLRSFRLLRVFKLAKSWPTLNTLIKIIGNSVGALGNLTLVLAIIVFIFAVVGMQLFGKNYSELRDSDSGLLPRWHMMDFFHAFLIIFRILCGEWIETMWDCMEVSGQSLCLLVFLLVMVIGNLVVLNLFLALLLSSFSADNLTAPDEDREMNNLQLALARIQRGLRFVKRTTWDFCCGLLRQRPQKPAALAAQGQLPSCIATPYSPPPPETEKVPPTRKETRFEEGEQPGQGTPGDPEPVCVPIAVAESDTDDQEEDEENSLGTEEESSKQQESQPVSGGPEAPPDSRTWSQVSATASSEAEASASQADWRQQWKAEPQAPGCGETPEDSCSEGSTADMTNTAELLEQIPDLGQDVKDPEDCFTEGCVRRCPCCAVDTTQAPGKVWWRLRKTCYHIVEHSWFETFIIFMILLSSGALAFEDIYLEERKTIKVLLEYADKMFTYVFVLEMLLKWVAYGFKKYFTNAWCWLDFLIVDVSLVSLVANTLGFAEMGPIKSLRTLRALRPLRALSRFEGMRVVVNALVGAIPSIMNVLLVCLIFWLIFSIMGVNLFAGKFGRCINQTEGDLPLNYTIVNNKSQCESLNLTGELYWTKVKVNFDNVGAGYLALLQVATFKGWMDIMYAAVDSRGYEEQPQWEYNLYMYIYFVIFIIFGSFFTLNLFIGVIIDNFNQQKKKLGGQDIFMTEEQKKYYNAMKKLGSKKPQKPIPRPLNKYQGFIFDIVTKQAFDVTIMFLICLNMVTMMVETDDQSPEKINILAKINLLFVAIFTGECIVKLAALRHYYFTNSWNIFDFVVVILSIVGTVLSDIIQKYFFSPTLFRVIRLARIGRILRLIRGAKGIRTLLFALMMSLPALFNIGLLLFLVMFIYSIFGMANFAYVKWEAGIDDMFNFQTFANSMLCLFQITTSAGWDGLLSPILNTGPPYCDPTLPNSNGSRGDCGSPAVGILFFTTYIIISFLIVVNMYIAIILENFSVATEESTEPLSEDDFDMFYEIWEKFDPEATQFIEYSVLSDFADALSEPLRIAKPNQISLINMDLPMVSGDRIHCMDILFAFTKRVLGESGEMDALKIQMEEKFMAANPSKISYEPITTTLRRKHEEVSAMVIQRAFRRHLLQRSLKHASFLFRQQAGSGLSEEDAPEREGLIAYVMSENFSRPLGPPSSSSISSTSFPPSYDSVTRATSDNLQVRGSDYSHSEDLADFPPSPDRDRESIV
Sequence of Norepinephrine transporter (P23975 whole entry, species assumed): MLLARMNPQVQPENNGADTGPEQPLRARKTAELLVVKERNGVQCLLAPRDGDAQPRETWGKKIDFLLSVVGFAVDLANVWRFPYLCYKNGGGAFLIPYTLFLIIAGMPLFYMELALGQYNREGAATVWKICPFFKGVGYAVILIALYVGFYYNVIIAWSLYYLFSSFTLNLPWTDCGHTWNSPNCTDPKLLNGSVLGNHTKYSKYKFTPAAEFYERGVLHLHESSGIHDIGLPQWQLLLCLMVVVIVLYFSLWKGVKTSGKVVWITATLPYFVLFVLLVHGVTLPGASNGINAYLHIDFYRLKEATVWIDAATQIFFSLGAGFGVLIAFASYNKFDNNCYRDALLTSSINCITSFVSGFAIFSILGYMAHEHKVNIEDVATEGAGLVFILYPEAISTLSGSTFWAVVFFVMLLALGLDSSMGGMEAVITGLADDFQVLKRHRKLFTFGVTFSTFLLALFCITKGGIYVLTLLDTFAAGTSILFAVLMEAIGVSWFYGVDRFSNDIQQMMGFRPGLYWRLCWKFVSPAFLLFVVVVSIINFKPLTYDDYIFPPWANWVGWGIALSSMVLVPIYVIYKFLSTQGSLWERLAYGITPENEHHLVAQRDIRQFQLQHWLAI
Sequence of 5-HT2B (P41595 whole entry, species assumed): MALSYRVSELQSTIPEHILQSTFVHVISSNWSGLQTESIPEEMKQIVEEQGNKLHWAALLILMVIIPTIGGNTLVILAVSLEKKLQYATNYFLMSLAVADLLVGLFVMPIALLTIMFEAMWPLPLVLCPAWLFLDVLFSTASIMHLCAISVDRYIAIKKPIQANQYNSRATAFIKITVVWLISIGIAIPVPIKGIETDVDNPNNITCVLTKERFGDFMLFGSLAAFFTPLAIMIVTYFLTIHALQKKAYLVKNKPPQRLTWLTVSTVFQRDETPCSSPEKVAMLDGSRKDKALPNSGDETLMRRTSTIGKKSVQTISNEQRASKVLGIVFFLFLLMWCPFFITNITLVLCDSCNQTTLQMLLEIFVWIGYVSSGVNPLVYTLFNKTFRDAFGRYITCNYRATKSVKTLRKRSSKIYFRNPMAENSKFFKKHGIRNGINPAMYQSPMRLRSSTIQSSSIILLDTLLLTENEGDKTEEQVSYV

For `COc1ccc2ncc(F)c(CC[C@@]3(O)CO[C@@H]4[C@@H](NCc5cc6c(cn5)OCCO6)CO[C@@H]43)c2n1` [Compound 6, (3R, 3aS,6S,6aR)-6-(((2,3-dihydro-[1,4]dioxino[2,36-c]pyridin-7-yl)methyl)amnino)-3-(2-(3-fluoro-6-methoxy-1,5-naphthyridin-4-yl)ethyl)hexahydrofuro[3,2-b]furan-3-ol], the “Spontaneous mutation frequency (8X MIC)” value (S. aureus ATCC 29213; 8X agar dilution MIC) was 7.89 × 10^−8 (n = 1), the “Spontaneous mutation frequency (16X MIC)” value (S. aureus ATCC 29213; 16X agar dilution MIC) was 1.57 × 10^−9 (n = 1) and the “Caco-2 permeability A→B” value (Caco-2 cells) was 10.8 ×10⁻⁶ cm/s. The “Caco-2 permeability B→A” value (Caco-2 cells) was 85.3 ×10⁻⁶ cm/s, the MIC [1] was ≤ 0.12 µg/mL and the inhibition at 100 µM [2] was 68%. For the same compound, the MIC [3] was 128 µg/mL (≈ 257 µM), the activity at 3 µM (CYP3A4; human liver microsomes, pH 7.4, probe midazolam (midazolam hydroxylase activity), Exp. 1, read-out: CYP3A4 (midazolam hydroxylase) % of control (Exp. 1)) was 74.3% and the activity at 3 µM (CYP3A4; human liver microsomes, pH 7.4, probe midazolam (midazolam hydroxylase activity), Exp. 2, read-out: CYP3A4 (midazolam hydroxylase) % of control (Exp. 2)) was 77.2%. It also gave an activity at 3 µM (CYP3A4; human liver microsomes, pH 7.4, probe midazolam (midazolam hydroxylase activity), Exp. 3, read-out: CYP3A4 (midazolam hydroxylase) % of control (Exp. 3)) of 60.4%, an activity at 10 µM (CYP3A4; human liver microsomes, pH 7.4, probe midazolam (midazolam hydroxylase activity), 10 μM, Exp. 3, read-out: CYP3A4 (midazolam hydroxylase) % of control (Exp. 3)) of 74.5% and an activity at 0.1 µM (CYP3A4; [7]) of 116%. For the same compound, the activity at 0.1 µM (CYP3A4; [8]) was 108%, the activity at 0.1 µM (CYP3A4; [9]) was 97% and the activity at 0.3 µM (CYP3A4; [7]) was 89.9%. It also gave an activity at 0.3 µM (CYP3A4; [8]) of 113%, an activity at 0.3 µM (CYP3A4; [9]) of 99.2% and an activity at 1 µM (CYP3A4; [7]) of 60.4%. For the same compound, the activity at 1 µM (CYP3A4; [8]) was 89.8%, the activity at 1 µM (CYP3A4; [9]) was 89.9% and the activity at 10 µM (CYP3A4; liver microsomes, pH 7.4, probe midazolam, 10 μM, Exp. 1, read-out: CYP3A4 (midazolam hydroxylase) % of control (Exp. 1)) was 49.5%. For the same compound, the activity at 10 µM (CYP3A4; liver microsomes, pH 7.4, probe midazolam, 10 μM, Exp. 2, read-out: CYP3A4 (midazolam hydroxylase) % of control (Exp. 2)) was 82.3%, the inhibition at 10 µM (CYP3A4; liver microsomes, pH 7.4, probe midazolam, 10 μM, screening assay) was 56% and the IC50 (CYP3A4; liver microsomes, pH 7.4, probe midazolam, concentration-response assay in triplicate) was > 10 µM. The MIC [4] was 2 µg/mL (≈ 4.01 µM), the “% Inhibition Nav1.5 (peak current)” value ([5]; 3 μM) was 6.1% and the “% Inhibition Nav1.5 (peak current)” value ([5]; 30 μM) was 16.7%. For the same compound, the “% Inhibition Nav1.5 (peak current)” value ([5]; 100 μM) was 21.1%, the inhibition at 100 µM (5-HT2B) was 95% and the MIC (MRSADRL-3161) was 1 µg/mL (≈ 2.01 µM). The “% Inhibition hERG (tail current)” value ([6]; 3 μM) was −2.4%, the “% Inhibition hERG (tail current)” value ([6]; 30 μM) was 11.3% and the “% Inhibition hERG (tail current)” value ([6]; 100 μM) was 39.0%.
